From PMC6458995, “MAP4K4 Inhibition Promotes Survival of Human Stem Cell-Derived Cardiomyocytes and Reduces Infarct Size In Vivo” (Cell Stem Cell, 2019)

Columns and labels:
Test in all cases: Dundee kinase panel
Assay type in all cases: biochemical
Conditions in all cases: for remaining activity at 1 µM: read-out: residual activity
EPH-A2 = biological target: T1, EPH-A2 (Homo sapiens, UniProt P29317)
T1 construct: lines 1-140) and Reaction Biology
Protocol: (§1) Compounds were screened at 1 μM. For key hits, pIC50 values were then determined by HTRF as above. […] Stability in mouse and human liver microsomes was determined by Cyprotex.

ERK2 = biological target: T2, ERK2 (Homo sapiens, UniProt P28482)
T2 construct: lines 1-140) and Reaction Biology
Protocol: as §1

HIPK1 = biological target: T3, HIPK1 (Homo sapiens, UniProt Q86Z02)
T3 construct: lines 1-140) and Reaction Biology
Protocol: as §1

IKKb = biological target: T4, IKKb (Homo sapiens, UniProt O14920)
T4 construct: lines 1-140) and Reaction Biology
T4 sequence (O14920 1-756): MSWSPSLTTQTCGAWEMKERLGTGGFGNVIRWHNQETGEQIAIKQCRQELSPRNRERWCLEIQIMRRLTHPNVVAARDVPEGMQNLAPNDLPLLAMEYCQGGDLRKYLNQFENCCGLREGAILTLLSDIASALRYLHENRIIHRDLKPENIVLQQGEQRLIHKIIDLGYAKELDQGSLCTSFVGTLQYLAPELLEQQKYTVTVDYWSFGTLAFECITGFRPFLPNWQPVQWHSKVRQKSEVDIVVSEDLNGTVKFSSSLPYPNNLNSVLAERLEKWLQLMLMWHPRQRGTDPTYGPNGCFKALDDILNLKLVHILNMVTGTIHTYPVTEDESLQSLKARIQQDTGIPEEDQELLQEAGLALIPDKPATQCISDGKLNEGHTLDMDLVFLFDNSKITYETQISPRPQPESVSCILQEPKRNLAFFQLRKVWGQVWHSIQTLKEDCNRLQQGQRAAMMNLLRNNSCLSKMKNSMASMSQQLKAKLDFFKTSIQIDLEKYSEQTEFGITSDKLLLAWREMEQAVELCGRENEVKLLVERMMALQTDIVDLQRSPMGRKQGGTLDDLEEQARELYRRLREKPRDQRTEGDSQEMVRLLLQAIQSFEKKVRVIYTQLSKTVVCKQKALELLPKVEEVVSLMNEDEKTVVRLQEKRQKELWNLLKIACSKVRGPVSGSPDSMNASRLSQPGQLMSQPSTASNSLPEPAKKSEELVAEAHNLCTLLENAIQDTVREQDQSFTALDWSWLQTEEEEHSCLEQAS
Protocol: as §1

IRAK1 = biological target: T5, IRAK1 (Homo sapiens, UniProt P51617)
T5 construct: lines 1-140) and Reaction Biology
Protocol: as §1

IRAK4 = biological target: T6, IRAK4 (Homo sapiens, UniProt Q9NWZ3)
T6 construct: lines 1-140) and Reaction Biology
T6 sequence (Q9NWZ3 1-460): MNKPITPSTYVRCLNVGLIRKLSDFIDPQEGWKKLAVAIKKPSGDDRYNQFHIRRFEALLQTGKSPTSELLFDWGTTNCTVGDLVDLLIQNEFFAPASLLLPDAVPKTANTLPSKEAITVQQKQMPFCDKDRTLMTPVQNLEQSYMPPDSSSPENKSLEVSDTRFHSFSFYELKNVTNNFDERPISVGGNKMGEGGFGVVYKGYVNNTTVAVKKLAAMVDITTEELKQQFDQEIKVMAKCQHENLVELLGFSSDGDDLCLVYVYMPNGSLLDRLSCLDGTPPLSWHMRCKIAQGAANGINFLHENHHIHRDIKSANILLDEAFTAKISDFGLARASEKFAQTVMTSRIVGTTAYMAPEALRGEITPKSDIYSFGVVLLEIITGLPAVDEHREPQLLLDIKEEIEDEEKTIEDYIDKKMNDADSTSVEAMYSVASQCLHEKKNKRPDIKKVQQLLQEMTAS
Protocol: as §1

PKCγ = biological target: T7, PKCγ (Homo sapiens, UniProt P05129)
T7 construct: lines 1-140) and Reaction Biology
Protocol: as §1

RIPK2 = biological target: T8, RIPK2 (Homo sapiens, UniProt O43353)
T8 construct: lines 1-140) and Reaction Biology
Protocol: as §1

SGK1 = biological target: T9, SGK1 (Homo sapiens, UniProt O00141)
T9 construct: lines 1-140) and Reaction Biology
T9 sequence (O00141 1-431): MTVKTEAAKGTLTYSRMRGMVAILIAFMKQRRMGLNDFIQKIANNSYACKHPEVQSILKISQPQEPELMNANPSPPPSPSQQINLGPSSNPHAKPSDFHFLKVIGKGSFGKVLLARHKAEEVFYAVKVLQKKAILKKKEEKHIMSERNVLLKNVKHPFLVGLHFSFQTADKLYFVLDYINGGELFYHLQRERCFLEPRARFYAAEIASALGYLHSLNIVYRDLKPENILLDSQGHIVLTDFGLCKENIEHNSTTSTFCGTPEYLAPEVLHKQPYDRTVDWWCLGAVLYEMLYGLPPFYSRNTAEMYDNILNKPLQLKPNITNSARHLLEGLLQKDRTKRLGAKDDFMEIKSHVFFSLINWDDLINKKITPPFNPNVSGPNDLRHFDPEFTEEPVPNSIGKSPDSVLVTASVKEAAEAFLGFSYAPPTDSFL
Protocol: as §1

WNK1 = biological target: T10, WNK1 (Homo sapiens, UniProt Q9H4A3)
T10 construct: lines 1-140) and Reaction Biology
Protocol: as §1

p38g MAPK = biological target: T11, p38g MAPK (Homo sapiens, UniProt P53778)
T11 construct: lines 1-140) and Reaction Biology
T11 sequence (P53778 1-367): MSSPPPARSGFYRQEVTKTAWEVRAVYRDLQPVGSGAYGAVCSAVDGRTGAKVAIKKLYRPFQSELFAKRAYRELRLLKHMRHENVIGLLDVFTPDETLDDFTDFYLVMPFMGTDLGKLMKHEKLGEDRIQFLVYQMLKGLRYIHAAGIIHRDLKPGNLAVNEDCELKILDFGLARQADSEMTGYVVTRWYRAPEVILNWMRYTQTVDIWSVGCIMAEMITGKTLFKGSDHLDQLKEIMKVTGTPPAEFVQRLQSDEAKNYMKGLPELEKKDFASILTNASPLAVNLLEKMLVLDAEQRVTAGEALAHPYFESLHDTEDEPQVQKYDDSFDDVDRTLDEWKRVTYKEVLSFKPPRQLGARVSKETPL
Protocol: as §1

T8 sequence (O43353 whole entry): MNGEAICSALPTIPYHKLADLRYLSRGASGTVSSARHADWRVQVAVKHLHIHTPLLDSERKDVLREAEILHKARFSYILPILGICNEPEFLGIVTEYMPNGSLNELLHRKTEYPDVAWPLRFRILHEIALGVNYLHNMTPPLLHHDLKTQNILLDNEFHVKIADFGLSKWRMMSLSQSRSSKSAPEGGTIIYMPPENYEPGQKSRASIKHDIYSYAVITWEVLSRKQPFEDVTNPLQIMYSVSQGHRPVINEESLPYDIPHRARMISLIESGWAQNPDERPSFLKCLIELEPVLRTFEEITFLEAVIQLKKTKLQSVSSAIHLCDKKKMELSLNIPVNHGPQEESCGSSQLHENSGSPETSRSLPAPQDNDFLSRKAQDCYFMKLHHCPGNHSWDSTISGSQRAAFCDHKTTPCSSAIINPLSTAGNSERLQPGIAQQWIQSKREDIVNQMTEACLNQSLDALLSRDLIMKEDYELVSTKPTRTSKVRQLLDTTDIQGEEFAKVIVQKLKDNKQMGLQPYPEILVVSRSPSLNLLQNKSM
T3 sequence (Q86Z02 whole entry): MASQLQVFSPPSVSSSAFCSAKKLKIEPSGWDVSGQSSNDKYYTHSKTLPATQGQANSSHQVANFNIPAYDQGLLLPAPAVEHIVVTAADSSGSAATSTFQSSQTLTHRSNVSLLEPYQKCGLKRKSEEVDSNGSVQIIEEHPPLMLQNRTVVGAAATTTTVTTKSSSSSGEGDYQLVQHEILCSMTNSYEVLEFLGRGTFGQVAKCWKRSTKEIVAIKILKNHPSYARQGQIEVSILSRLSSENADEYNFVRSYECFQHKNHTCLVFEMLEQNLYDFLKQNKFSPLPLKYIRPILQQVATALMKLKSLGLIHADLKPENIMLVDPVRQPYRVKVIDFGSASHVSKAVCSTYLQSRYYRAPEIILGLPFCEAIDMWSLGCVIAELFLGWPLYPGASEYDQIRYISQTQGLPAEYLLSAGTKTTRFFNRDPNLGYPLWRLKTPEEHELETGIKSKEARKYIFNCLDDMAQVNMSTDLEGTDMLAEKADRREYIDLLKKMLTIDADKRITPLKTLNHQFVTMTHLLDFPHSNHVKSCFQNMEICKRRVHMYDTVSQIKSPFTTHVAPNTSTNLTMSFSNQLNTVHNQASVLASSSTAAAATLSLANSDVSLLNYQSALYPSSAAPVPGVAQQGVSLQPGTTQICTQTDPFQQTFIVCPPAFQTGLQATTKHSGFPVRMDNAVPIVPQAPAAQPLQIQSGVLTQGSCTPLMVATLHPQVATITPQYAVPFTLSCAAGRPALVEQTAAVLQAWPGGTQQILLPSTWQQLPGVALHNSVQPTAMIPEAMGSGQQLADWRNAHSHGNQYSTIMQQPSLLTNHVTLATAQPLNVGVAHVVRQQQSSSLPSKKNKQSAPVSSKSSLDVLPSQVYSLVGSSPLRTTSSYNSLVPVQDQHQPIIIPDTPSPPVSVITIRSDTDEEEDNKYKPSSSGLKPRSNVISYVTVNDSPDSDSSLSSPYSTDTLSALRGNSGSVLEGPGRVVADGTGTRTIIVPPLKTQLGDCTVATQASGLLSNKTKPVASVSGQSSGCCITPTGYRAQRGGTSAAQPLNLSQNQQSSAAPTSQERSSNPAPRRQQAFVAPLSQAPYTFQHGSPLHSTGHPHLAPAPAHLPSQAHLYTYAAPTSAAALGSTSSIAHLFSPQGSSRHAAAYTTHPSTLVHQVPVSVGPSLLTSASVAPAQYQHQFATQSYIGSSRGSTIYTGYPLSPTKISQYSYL
T1 sequence (P29317 24-976): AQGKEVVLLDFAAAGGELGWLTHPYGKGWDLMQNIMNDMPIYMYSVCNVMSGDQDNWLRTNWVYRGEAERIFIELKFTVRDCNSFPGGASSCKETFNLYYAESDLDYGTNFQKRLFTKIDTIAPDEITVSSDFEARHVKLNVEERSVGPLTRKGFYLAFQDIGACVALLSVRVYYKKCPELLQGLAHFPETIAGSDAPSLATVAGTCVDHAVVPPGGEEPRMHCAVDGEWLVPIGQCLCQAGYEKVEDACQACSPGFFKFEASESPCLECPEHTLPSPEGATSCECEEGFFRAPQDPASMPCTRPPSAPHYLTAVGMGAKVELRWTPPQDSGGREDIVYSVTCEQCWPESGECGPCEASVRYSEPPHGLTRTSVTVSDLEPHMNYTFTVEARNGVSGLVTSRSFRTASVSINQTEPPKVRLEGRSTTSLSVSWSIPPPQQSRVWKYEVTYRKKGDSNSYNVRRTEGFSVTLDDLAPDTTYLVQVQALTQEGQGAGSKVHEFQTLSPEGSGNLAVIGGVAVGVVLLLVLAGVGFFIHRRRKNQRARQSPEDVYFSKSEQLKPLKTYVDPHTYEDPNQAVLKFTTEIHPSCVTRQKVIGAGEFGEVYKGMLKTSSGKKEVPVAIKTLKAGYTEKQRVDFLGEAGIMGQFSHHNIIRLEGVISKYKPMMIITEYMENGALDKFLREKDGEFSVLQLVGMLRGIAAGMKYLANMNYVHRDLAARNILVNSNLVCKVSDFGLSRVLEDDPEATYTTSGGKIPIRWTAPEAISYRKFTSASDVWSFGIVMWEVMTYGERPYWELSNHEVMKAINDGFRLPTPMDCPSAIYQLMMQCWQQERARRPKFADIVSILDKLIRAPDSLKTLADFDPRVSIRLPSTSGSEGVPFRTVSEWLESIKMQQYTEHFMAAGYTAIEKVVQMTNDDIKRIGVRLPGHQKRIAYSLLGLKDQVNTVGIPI
T2 sequence (P28482 whole entry): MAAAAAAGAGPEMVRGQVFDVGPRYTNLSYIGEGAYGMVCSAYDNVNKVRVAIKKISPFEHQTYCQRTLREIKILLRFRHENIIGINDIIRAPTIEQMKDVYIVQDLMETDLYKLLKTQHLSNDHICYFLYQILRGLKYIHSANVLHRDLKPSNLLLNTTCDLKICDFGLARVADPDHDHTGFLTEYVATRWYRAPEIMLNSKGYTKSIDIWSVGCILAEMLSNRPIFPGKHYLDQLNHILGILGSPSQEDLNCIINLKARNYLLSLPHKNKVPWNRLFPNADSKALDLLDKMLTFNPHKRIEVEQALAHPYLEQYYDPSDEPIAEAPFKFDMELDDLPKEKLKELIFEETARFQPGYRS
T5 sequence (P51617 whole entry): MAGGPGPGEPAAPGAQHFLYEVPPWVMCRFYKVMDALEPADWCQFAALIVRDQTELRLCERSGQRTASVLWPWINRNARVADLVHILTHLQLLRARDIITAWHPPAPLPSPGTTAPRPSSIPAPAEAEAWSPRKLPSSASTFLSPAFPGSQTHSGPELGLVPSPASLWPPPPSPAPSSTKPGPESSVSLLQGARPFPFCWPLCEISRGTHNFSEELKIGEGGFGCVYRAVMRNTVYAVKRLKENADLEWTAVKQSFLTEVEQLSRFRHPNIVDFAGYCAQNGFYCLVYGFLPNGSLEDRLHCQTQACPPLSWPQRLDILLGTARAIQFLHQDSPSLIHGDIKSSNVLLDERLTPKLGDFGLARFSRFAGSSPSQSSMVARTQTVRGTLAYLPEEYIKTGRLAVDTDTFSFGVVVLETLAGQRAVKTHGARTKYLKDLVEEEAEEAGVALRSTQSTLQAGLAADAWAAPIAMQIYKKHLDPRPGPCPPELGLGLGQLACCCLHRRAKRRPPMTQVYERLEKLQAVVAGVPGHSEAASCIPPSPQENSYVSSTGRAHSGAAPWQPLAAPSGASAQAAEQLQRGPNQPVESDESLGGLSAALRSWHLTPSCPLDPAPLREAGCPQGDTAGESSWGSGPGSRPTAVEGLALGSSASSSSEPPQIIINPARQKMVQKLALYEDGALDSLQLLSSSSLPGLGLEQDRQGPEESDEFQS

SMILES	remaining activity at 1 µM (EPH-A2)	remaining activity at 1 µM (ERK2)	remaining activity at 1 µM (HIPK1)	remaining activity at 1 µM (IKKb)	remaining activity at 1 µM (IRAK1)	remaining activity at 1 µM (IRAK4)	remaining activity at 1 µM (PKCγ)	remaining activity at 1 µM (RIPK2)	remaining activity at 1 µM (SGK1)	remaining activity at 1 µM (WNK1)	remaining activity at 1 µM (p38g MAPK)	further results
O=C1Cc2c([nH]c3ccc(Br)cc23)-c2ccccc2N1 [Kenpaullone]	103%	124%	102%	103%	39%	65%	105%	60%	101%	92%	100%	
COCCOc1ccc(-c2cn(-c3ccccc3)c3nc[nH]c(=O)c23)cc1 [DMX-5804, 5-[4-(2-methoxy-ethoxy)-phenyl]-7-phenyl-3,7-dihydro-pyrrolo[2,3-d]pyrimidin-4-one]	94%	76%	109%	107%	100%	97%	94%	89%	104%	106%	117%	
O=C1Nc2ccc(I)cc2/C1=C/c1cc(Br)c(O)c(Br)c1 [GW5074]	63%	106%	84%	73%	57%	78%	100%	51%	91%	94%	114%	
Nc1ncc(C(=O)NC2CN(C(=O)C3CC3)C2)c2ccc(-c3cccc(F)c3)nc12 [GNE-495]												residual activity (EPH-A2; 1 μM): 112%; residual activity (ERK2; 1 μM): 104%; residual activity (HIPK1; 1 μM): 97%; residual activity (IKKb; 1 μM): 88%; residual activity (IRAK1; 1 μM): 113%; residual activity (IRAK4; 1 μM): 75%; residual activity (PKCγ; 1 μM): 74%; residual activity (RIPK2; 1 μM): 11%; residual activity (SGK1; 1 μM): 55%; residual activity (WNK1; 1 μM): 102%; residual activity (p38g MAPK; 1 μM): 93%
Oc1ncnc2c1c(-c1ccccc1)cn2-c1ccccc1 [F1386-0303, 5,7-diphenyl-7H-pyrrolo[2,3-d]pyrimidin-4-ol]	97%	99%	54%	102%	107%	103%	105%	105%	101%	109%	109%	
